Like-named read-outs stand apart in the source and are kept apart here.
What was measured:
[1] = DPPH radical scavenging assay; conditions: 30 min, 515 nm
Method: The stock solution of the compounds was prepared by dissolving 4 in dimethyl sulfoxide (DMSO) to a concentration of 4 mg/mL. The solution was diluted with methanol until a concentration of 400 µg/mL was obtained and then used immediately.
The experimental procedure was adapted from the literature. Briefly, 100 µL of a 0.2 mM methanol solution of DPPH (2, 2-diphenyl-1-picrylhydrazyl) radical were added to 100 µL of methanolic solutions of 4 prepared as serial two-fold dilutions from the stock solution in 96-well microfilter plates. Standards and edaravone were also prepared in the same concentrations. The mixture was incubated in dark at room temperature for 30 min and the absorbance was read at 515 nm on a Cytation 5 (BioTek) spectrophotometer.
The % DPPH scavenging activity was then calculated by using the following formula:(1) % DPPH scavenging = 100 × [(Asample+DPPH−Asample blank)/(ADPPH−Asolvent)]
The antioxidant activity of the compound was expressed as IC50, which is defined as the concentration that could scavenge 50% of the DPPH free radical. The IC50 values were calculated in GraphPad Prism 7.02 (GraphPad Software, Corp.) The results are given as a mean ± standard deviation (SD) of experiments done in triplicate.

[2] = MTS cell viability assay on A-549 cells; assay type: cell-based; conditions: Homo sapiens; 48 h, 15-150 µM, mean ± SEM of triplicates
Method: (§1) Five tumor human cancer cell lines—cerebral astrocytoma (D-384), grade IV prostatic adenocarcinoma (PC-3), mammary adenocarcinoma (MCF-7), human colon carcinoma (RKO) and lung carcinoma (A-549)—along with one immortalized hamster cell line (CHO K-1) were used. The cells PC-3, MCF-7 and RKO were cultured in RPMI-1640, D-384 on DMEM and CHO K-1 on HAM F-12 medium supplemented with 10% fetal bovine serum (FBS, Invitrogen, Karlsruhe, Germany), 1% antibiotic-antimitotic solution (100 units/mL penicillin G, 100 µg/mL streptomycin, and 0.25 µg/mL amphotericin B, Gibco, Grand Island, NY, USA), and 1% L-glutamine (2 mM, Gibco). The cells were incubated at 37 °C in a 5% CO2 atmosphere. The viable cells were counted using the trypan blue exclusion method in a hemocytometer.
(§2) The MTS (5-[3-(carboxymethoxy)phenyl]-3-(4,5-dimethyl-2-thiazolyl)-2-(4-sulfo- phenyl)-2H-tetrazolium inner salt) cell viability assay was used to assess the inhibitory effects of the extracts on the survival of human cancer cell lines. A total of 3–5 × 10^3 cells/well were seeded into 96-well plates and were allowed to adhere for 24 h. […] Each concentration/assay was performed three times. Dimethyl sulfoxide (DMSO) was used as a negative control at a final concentration of 0.1% v/v, and 1 µM Doxorubicin was used as a positive control. The cells were incubated with the treatments for 48 h, after which 20 µL MTS (5 mg/mL, Aqueous One Solution Reagent, Gibco) was added and further incubated for 4 h at 37 °C. The absorbance was measured at 570 nm. The data obtained with cells treated with DMSO were defined to represent 100% viability.

[3] = test system: A-549; test: MTS cell viability assay on A-549 cells; assay type: cell-based; conditions: Homo sapiens, A549; 100 µM, 48 h; Dox 1 µM; mean ± SEM; NA = no activity; read-out: Percentage (%) of inhibition, A-549
Method: as §1, §2

[4] = test system: HeLa; test: MTS cell viability assay on HeLa cells; assay type: cell-based; conditions: Homo sapiens, 48 h, Dox 1 µM, mean ± SEM, NA = no activity, read-out: Percentage (%) of inhibition, HeLa
[5] = test system: RKO; test: MTS cell viability assay on RKO cells; assay type: cell-based; conditions: Homo sapiens, 48 h
Method: as §1, §2

[6] = test system: CHO-K1; test: MTS cell viability assay on immortalized CHO-K1 cells; assay type: cell-based, hamster; conditions: 48 h, Dox 1 µM, mean ± SEM, NA = no activity, read-out: Percentage (%) of inhibition, CHO-K1
Method: as §1, §2

[7] = test system: PC-3; test: MTS cell viability assay on PC-3 cells; assay type: cell-based; conditions: Homo sapiens, 48 h
Method: as §1, §2

[8] = test system: MCF-7; test: MTS cell viability assay on MCF-7 cells; assay type: cell-based; conditions: Homo sapiens, Dox 1 µM, mean ± SEM, NA = no activity, read-out: Percentage (%) of inhibition, MCF-7
Method: as §1, §2

[9] = test system: Leishmania mexicana cells; test: Comet assay of Leishmania mexicana cells; assay type: cell-based; parameters: Comet tail length, mean (vary) / Comet tail length, median (Q50): unit not given here; conditions: L. mexicana, 24 h at MIC; MMS 0.011%; Kruskal-Wallis $means
Method: We quantified DNA breaks by a comet assay to determine if these compounds are genotoxic. Here, L. mexicana cells were exposed for 24 h to MIC concentrations previously determined (see Materials and Methods Section) for each compound. Figure 1 represents the measurements obtained for tail length. All compounds generated DNA breaks expect 4s. […] Samples with DMSO and MMS (0.011%) were included as controls. Some representative pictures are shown at Figure S4. The effect of 4p could not be determined because the cells appear to be very damaged. The data was subjected via a Kruskal–Wallis one-way ANOVA (Statistical Analyses S2). […] These observations support a mechanism of action through the generation of DNA damage.
For leishmania, a method previously described for yeast was adapted. Briefly, after incubating the cells in presence of the compounds for 24 h, cells were collected and washed with buffer S (1 M sorbitol, 25 mM KH2PO4 in ultrapure water and adjust to pH 6.5 with NaOH). The pellet was resuspended in 400 µL of 1.5% LMA and 40 µL was spread (second layer) onto previously agarose-coated slides (first layer).
Slides were immersed in cold lysis buffer (30 mM NaOH, 1 M NaCl, 0.05 % (w/v) lauroylsarcosine, 50 mM EDTA, and 10 mM Tris–HCl, pH 10) for 25 min and then in cold electrophoresis alkaline buffer (30 mM NaOH, 10 mM EDTA, and 10 mM Tris–HCl, pH 10). They were then subjected to electrophoresis at 26V and 300 mA. Slides were immersed in neutralization buffer (10 mM Tris–HCl, pH 7.4; prepared in advance and stored at 4 °C) for 10 min at room temperature. The cells were then treated with proteinase K (20 min, 37 °C in humid chamber), followed by a new neutralization step. To dehydrate the slides, they were immersed in EtOH 90% and EtOH absolute for 10 min each. Finally, the slides were stained with Sybr Gold 1X.
The DNA migration was analyzed using a LEICA microscope with fluorescence (40×) by scoring 100 cells per slide in duplicate. The tail moment parameter was then analyzed by the Comet Score software.

[10] = test system: promastigotes of Leishmania mexicana; test: Leishmanicidal activity, MTT assay on promastigotes; assay type: cell-based; conditions: for SI (Selectivity Index) = Citotoxic activity/Leishmanicidal activity: CC50 RAW / IC50 L. mexicana; for IC50: Leishmania mexicana
Method: The leishmanicidal activity of all compounds was evaluated by measuring promastigotes’ mitochondrial activity using MTT colorimetric assay as described previously. In this study, promastigotes from Leishmania mexicana were used. The species were confirmed by amplifying and sequencing cytochrome b gene. Promastigotes were cultured at 25 °C in Schneider’s Drosophila Medium (Gibco, Invitrogen, Carlsbad, CA, USA) supplemented with 10% fetal bovine serum (Eurobio, Les Ulis, France). The medium was renewed every third day. Parasite density was determined by counting the cells using a Neubauer chamber.
Into each well of a 96-well plate were dispensed 1 × 10^6 parasites/well. A stock solution of the compounds was prepared in DMSO (Sigma Aldrich, Saint Louis, MO, USA), and serial dilutions were added to the parasite suspension, leading to concentrations ranging from 100 to 0.001 µM, keeping the solvent concentration at 0.5%. The final volume was 200 µL for each well and triplicate conditions were carried out. Amphotericin B (Gibco) treatment (1 µM) untreated parasites and DMSO 0.5% were used as positive and negative controls, respectively. After exposure to the compounds for 48 h in culture medium, 20 µL of a solution of 5 mg/mL MTT dissolved in PBS were added to each well. The plate was incubated at 25 °C for 2 h in darkness. The plate was then centrifuged at 4400 rpm for 10 min and the culture medium was then aspirated; 50 µL of DMSO were added into each well to solubilize the formazan crystals and the plate was shaken for 5 min and then it was measured by recording changes in absorbance at 570 nm using a microplate reader Cytation 5 (BioTek) spectrophotometer. A reference wavelength of 630 nm was used as background subtraction. Optical densities were analyzed because the quantity of formazan is directly proportional to the number of viable parasites. Data were analyzed with the statistical software GraphPad Prism 7.02 (GraphPad Software, Corp.).

[11] = Cytotoxicity, MTT assay on RAW 264.7 macrophages; assay type: cell-based; conditions: mouse
Method: Raw 264.7 (ATCC® TIB-71™) was maintained in Dulbecco’s Modified Eagle Medium (DMEM) (Gibco, Invitrogen, Gibco, Carlsbad, CA, USA) supplemented with 10% fetal bovine serum (FBS) (Eurobio, Les Ulis, France) and 100 IU/mL penicillin + 100 μg/mL streptomycin (Gibco), at 37 °C in a 5% CO2 atmosphere. The medium was renewed once a week. The viability was determined using MTT (Thiazolyl Blue Tetrazolium Bromide) dye assay as described before for leishmanicidal activity assessment, with some variations. Here, 5 × 10^4 cells/well in a final volume of 100 µL were deposited into a 96-well plate, in triplicate. Saponin (2.4 mg/mL) and untreated cells were used as positive control and negative control, respectively. A stock solution was prepared in DMSO and immediately diluted in media to obtain different serial concentrations (100–0.01 µM). After 48 h exposure to the compounds, 10 µL/well of MTT (5 mg/mL MTT in PBS) were added, and the plate was incubated at 37 °C for 2 h in the dark. Cells were pelleted by centrifugation at 4400 rpm for 10 min and the media was removed. Then, 100 µL/well of DMSO were added and the absorbance at 570 nm was recorded; a reference wavelength of 630 nm was used for background subtraction.

[12] = 100 µM, Dox 1 µM, mean ± SEM, NA = no activity, read-out: Percentage (%) of inhibition, RKO
[13] = 15-150 µM, mean ± SEM of triplicates
[14] = 100 µM, Dox 1 µM, mean ± SEM, NA = no activity, read-out: Percentage (%) of inhibition, PC-3
[15] = read-out: IC50 original values, x.1 (Mean)
[16] = L. mexicana promastigotes, 48 h, MTT, read-out: Leishmanicidal Activity IC50
[17] = RAW cells, 48 h, MTT, read-out: Cytotoxicity CC50

## O=C1O[C@H]([C@@H](O)CO)C(O)=C1O [Ascorbic acid, ascorbic acid, reference compound]
[1]
  IC50: 14 µM

## CC1=NN(c2ccccc2)C(=O)C12CC21C(=O)N(c2ccccc2)N=C1C (stereo not drawn)
other
  melting point: 165.8 to 167.9 °C

## Cc1nn(-c2ccccc2)c(O)c1C(c1cc(O)ccc1[N+](=O)[O-])c1c(C)nn(-c2ccccc2)c1O
other
  melting point: 205 to 207 °C (dec.)

## CC1=NN(c2ccccc2)C(=O)C1=Cc1ccc(N(C)C)cc1
other
  melting point: 190.7 to 193.2 °C

## COc1cccc2c1C(=O)c1c(O)c3c(c(O)c1C2=O)C[C@@](O)(C(=O)CO)C[C@@H]3O[C@H]1C[C@H](N)[C@H](O)[C@H](C)O1 [Dox, Doxorubicin, reference compound]
[2]
  IC50: 1230 ± 100 nM
[3]
  inhibition at 1 µM: 9.16 ± 2.16%
[4]; 100 µM
  inhibition at 1 µM: 9.18 ± 9.55%
[5]; [12]
  inhibition at 1 µM: 85.6 ± 1.06%
[5]; [13]
  IC50: 510 ± 10 nM
[6]; 100 µM
  inhibition at 1 µM: 2.62 ± 1.42%
[7]; [14]
  inhibition at 1 µM: 88 ± 1.65%
[7]; [13]
  IC50: 650 ± 80 nM
[8]; MCF7, 100 µM, 48 h
  inhibition at 1 µM: 46.2 ± 7.77%

## COS(C)(=O)=O [MMS, methyl methanesulfonate, reference compound]
[9]
  Comet tail length, mean (vary): 67050000
  Comet tail length, median (Q50): 65000000

## C[C@@H]1[C@H](O)[C@@H](C)/C=C/C=C/C=C/C=C/C=C/C=C/C=C/[C@H](O[C@@H]2O[C@H](C)[C@@H](O)[C@H](N)[C@@H]2O)C[C@@H]2O[C@](O)(C[C@@H](O)C[C@@H](O)[C@H](O)CC[C@@H](O)C[C@@H](O)CC(=O)O[C@H]1C)C[C@H](O)[C@H]2C(=O)O [Ampho B, Amphotericin B, reference compound]
[10]
  SI (Selectivity Index) = Citotoxic activity/Leishmanicidal activity: >31.8
[10]; [15]
  IC50: 172 nM
[10]; [16]
  IC50: 170 ± 70 nM
[11]; [17]
  CC50 at 48 h: > 5.4 µM

## COC1C=C(C(c2c(C)nn(-c3ccccc3)c2O)c2c(C)nn(-c3ccccc3)c2O)C=CC1(O)OC (stereo not drawn)
other
  melting point: 208 to 210 °C

## CC1=NN(c2ccccc2)C(=O)[C@@]12C(c1ccc(F)cc1)[C@@]21C(=O)N(c2ccccc2)N=C1C (relative stereo) [4p, (5R*,6R*)-11-(4-Fluorophenyl)-4,10-dimethyl-2,8-diphenyl-2,3,8,9-tetraazadispiro[4.0.4.1]undeca-3,9-diene-1,7-dione]
[3]
  inhibition at 100 µM: 9.08 ± 1.14%
[10]
  SI (Selectivity Index) = Citotoxic activity/Leishmanicidal activity: 6.1
[10]; [15]
  IC50: 575 nM
[10]; [16]
  IC50: 570 ± 230 nM
other
  melting point: 128.9 to 129.9 °C
[4]
  inhibition at 100 µM: 5.98 ± 2.19%
[5]; [12]
  inhibition at 100 µM: 18.6 ± 1.37%
[6]
  inhibition at 100 µM: 1.95 ± 1.42%
[7]; [14]
  inhibition at 100 µM: 5.25 ± 2.6%
[11]; [17]
  CC50 at 48 h: 3.5 ± 0.9 µM
[11]; Statistical Analyses S1, unrounded mean of CC50 in RAW cells, unit inferred, read-out: CC50 original values, x.1 (Mean)
  CC50 at 48 h: 3.55 µM
[8]; MCF7, 48 h
  inhibition at 100 µM: 13.6 ± 2.55%
[1]
  IC50: > 300 µM
